Assay results reported in US7968103B2, “Compositions comprising fetal hemoglobin and bacterial endotoxin and optionally additional fetal liver components” (priority 2003, dated 2011).

Columns and labels:
[1] = system: human PBL; assay: TNFα production by human PBL with LPS and Hb; format: cell-based; conditions: LPS 200 ng/ml
Experimental: (§1) PBL were obtained by Ficoll-hypaque purification from volunteers. Cells were incubated in triplicate in 2 ml medium (with 10% commercial human AB serum and 200 ng/ml LPS) at a concentration of 1×10^6/ml. Medium contained in addition adult or fetal (sheep) hemoglobin at the various concentrations shown. Supernatants were harvested 24 hrs later to assay in triplicate for TNFα by ELISA. […] Control cultures (no LPS, LPS only, or fetal/adult Hb only) produced levels <50 ng/ml, <100 ng/ml or <65 ng/ml respectively.
PBL were obtained by Ficoll-hypaque purification from volunteers. Cells were incubated in 2 ml medium (with 10% commercial human AB serum). Cells were incubated in the presence/absence of 500 ng/ml adult or fetal sheep hemoglobin α- or γ-chain. Control cells were incubated in the absence of hemoglobin protein (far left of Figure). In addition, each group was further subdivided into triplicates which received no additional materials (open bars), or 200 ng/ml LPS (closed bars). Supernatants were harvested 24 hrs later to assay (in triplicate) for TNFα by ELISA. Data in panels A and B are independent studies using different volunteer donors (mean ±SD). […]

[2] = system: mouse spleen cells; assay: Cytokine production by mouse spleen cells with LPS and Hb; format: cell-based, C57BL/6 mice; conditions: murine spleen cells, LPS 200 ng/ml
Experimental: as §1, with “Spleen cells” for “PBL”, “pooled” for “obtained by Ficoll-hypaque purification”, “3 C57BL/6 donors (8-week male).” for “volunteers.”, “fetal calf” for “commercial human AB”, “<70” for “<100”, “<50” for “<65”
Spleen cells were pooled from 3 C57BL/6 donors (8-week male). Cells were incubated in triplicate in 2 ml medium (with 10% fetal calf serum and 200 ng/ml LPS) at a concentration of 1×10^6/ml. Medium contained in addition adult or fetal (sheep) hemoglobin at the various concentrations shown. Supernatants were harvested 24 hrs later to assay for IL-6 in triplicate by ELISA. […] Control cultures (no LPS, LPS only, or fetal/adult Hb only) produced levels <100 ng/ml, <120 ng/ml or <100 ng/ml respectively.
In this experiment the cloned γ- and β-chain of sheep Hb were assayed as CHO extracts (20 μg/ml) together with LPS (100 ng/ml) to stimulate murine spleen cells in vitro for the production of TNFα (detection at 24 hr by ELISA) […]

[3] = system: S-form LPS, Re-LPS, Lipid A; assay: LPS/Lipid A-specific adsorption assay; format: binding
Experimental: In order to identify the LPS or Lipid A-interacting protein(s) in CLP1b a LPS/Lipid A-specific adsorption assay was developed. In this screening system polyvinylchloride 96-well microtiter plates (Becton Dickinson) were coated for 14 h at 4° C. with S-form LPS from Salmonella enterica sv. Minnesota 188233, Re-LPS from E. coli F515 or a Lipid A preparation derived from the E. coli strain solubilized as triethylamine (TEA) salts in LAL reagent water (BioWhittaker) at concentrations of 5 μg/ml or 2 μg/ml, respectively. As a control a series of wells was similarly treated with LAL reagent water without the addition of LPS or Lipid A. Subsequently, the solutions were decanted and the wells were rinsed four times with Dulbeccos phosphate-buffered saline (D-PBS; Lifetechnologies) without magnesium or calcium salts. […] In addition, the lyophilized samples from the prior CLP1b incubation and the following sequence of washing steps were resuspended in 50 μl SDS-Sample buffer and the compositions of the collected samples from the adsorption assay were analyzed by SDS-PAGE in 15% (w/v) polyacrylamide gels and silver staining according to the method described by Heukeshoven [Heukeshoven, J., 1986].

[4] = system: LPS aggregates (Re-LPS from E. coli F515, S-form LPS from Salmonella enterica sv. Minnesota 188233); assay: LPS disaggregation, automated native PAGE assay; conditions: LPS 0.275 μg/μl, hemoglobin 0.375 μg/μl, 37° C., 30 min
Description: Concerning the molecular mechanism of the enhancement of LPS bioactivities by adult mammalian hemoglobin (HbA) preparations, a profound dispersion of the physiologically predominating large LPS aggregates (MW≧10^6 Da) by HbA has been described [Roth, R. J., 1994; Kaca, W., 1994; Roth R. J., 1999]. For analysis of potential analogous effects of highly purified fetal ovine hemoglobin (s-HbF) an automated native PAGE assay was established employing the PhastSystem™ apparatus (Amersham Pharmacia Biotech). Briefly, Re-LPS purified from E. coli F515 or S-form LPS from Salmonella enterica sv. Minnesota 188233 at a final concentration of 0.275 μg/μl was incubated in the presence or absence of the analyzed hemoglobin preparations (0.375 μg/μl) at 37° C. for 30 min. […] The denatured samples were finally analyzed by SDS-PAGE in PhastGel™ Homogeneous-20 gels equipped with PhastGel™ SDS buffer strips (Amersham Pharmacia Biotech) according to the standard protocol of the manufacturer and subsequent silver staining. In comparison to ovine HbF preparations of human HbA (SIGMA-Aldrich), adult ovine hemoglobin (s-HbA) and heme-free fetal ovine hemoglobin (s-HbF/hf) were analysed for LPS disaggregation activities in the native Phast™ PAGE assay.

[5] = system: adherent spleen cells; assay: Co-stimulation of adherent spleen cells (macrophages) with LPS/CLP2p and recombinant cytokines, cytokine ELISA; format: cell-based, DBA/2 mice; conditions: 18 h; LPS 1 μg/ml, CLP2p 0.3 μg/ml, rIL-12/rIL-13 0.1 μg/ml, anti-IL-12 10 μg/ml
Experimental: LPS, as well as many defined cytokines, including IL-1, IL-6, IL-10, IL-12, IL-13 and IFNγ, stimulate macrophages to produce other cytokines in vitro and in vivo. […] In addition, cells were treated with CLP2p, or with cytokines, in the presence of monoclonal antibodies to cytokines. Cytokine production was measured by ELISA (all reagents purchased by Pharmingen, San Diego, USA).
IL-12 is a primary physiological stimulus for cytokine production by macrophages during inflammation [Wang, J., 1999], and LPS may mediate its stimulatory effects by inducing IL-12 production. Similarly, IL-13 may be a physiologic counter-regulator of stimulation by IL-12 [Machado, F., 1998]. […] In some cultures a monoclonal antibody to IL-12 was included. (Recombinant cytokines were obtained according to conventional protocols.) Data pooled from 3 such studies are shown in Table 1.

[6] = Bioenhancing effect on LPS (data not shown)
[7] = biological target: CD14 on spleen adherent cells of DBA/2 mice (mouse (cells from DBA/2 mice)) (UniProt P10810); assay: cell-based or functional assay
Chain of UniProt P10810 (P10810 16-336): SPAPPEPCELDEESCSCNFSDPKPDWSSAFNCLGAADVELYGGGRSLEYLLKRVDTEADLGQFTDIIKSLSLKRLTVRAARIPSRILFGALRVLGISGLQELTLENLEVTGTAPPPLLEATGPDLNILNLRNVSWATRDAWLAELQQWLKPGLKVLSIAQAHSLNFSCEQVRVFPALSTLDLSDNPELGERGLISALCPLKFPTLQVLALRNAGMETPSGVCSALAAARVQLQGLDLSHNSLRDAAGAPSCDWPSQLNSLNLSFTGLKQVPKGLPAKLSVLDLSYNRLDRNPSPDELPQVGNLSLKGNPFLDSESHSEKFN

fetal Hb: purified fetal sheep hemoglobin, α and γ chains (α2γ2)
synergy with LPS for the production of TNFα [1]: striking synergy | synergy with LPS in the production of TNFα or IL-6 [2]: clear evidence for a synergy | LPS/Lipid A interaction in CLP1b [3]: major LPS/Lipid A-interacting component | LPS disaggregation activity [4]: stronger LPS disaggregation activities

rIL-13: recombinant cytokine IL-13 [reference compound]
IL-1 level in culture supernatant [5]: 15 ng/mL | IL-6 level in culture supernatant [5]: 1040 pg/mL | TNFα level in culture supernatant [5]: 40 ng/mL

myoglobin
bioenhancing effect [6]: not observed

commercial anti-CD14 monoclonal antibody (UCHM-1, Sigma)
Inhibition % of TNF-α production by spleen adherent cells; stimulus CLP2p (0.3 µg/ml), anti-CD14 2.5 µg/ml [7]: 46% | Inhibition % of TNF-α production by spleen adherent cells; stimulus CLP2p (0.3 µg/ml), anti-CD14 10 µg/ml [7]: 80% | Inhibition % of TNF-α production by spleen adherent cells; stimulus LPS (1 µg/ml), anti-CD14 2.5 µg/ml [7]: 58% | Inhibition % of TNF-α production by spleen adherent cells; stimulus LPS (1 µg/ml), anti-CD14 10 µg/ml [7]: 81%

B1: rIL-12: recombinant cytokine IL-12 (protein, UniProt P29459 23-219; P29460 23-328, looked up)
Interleukin-12 subunit alpha: RNLPVATPDPGMFPCLHHSQNLLRAVSNMLQKARQTLEFYPCTSEEIDHEDITKDKTSTVEACLPLELTKNESCLNSRETSFITNGSCLASRKTSFMMALCLSSIYEDLKMYQVEFKTMNAKLLMDPKRQIFLDQNMLAVIDELMQALNFNSETVPQKSSLEEPDFYKTKIKLCILLHAFRIRAVTIDRVMSYLNAS
Interleukin-12 subunit beta: IWELKKDVYVVELDWYPDAPGEMVVLTCDTPEEDGITWTLDQSSEVLGSGKTLTIQVKEFGDAGQYTCHKGGEVLSHSLLLLHKKEDGIWSTDILKDQKEPKNKTFLRCEAKNYSGRFTCWWLTTISTDLTFSVKSSRGSSDPQGVTCGAATLSAERVRGDNKEYEYSVECQEDSACPAAEESLPIEVMVDAVHKLKYENYTSSFFIRDIIKPDPPKNLQLKPLKNSRQVEVSWEYPDTWSTPHSYFSLTFCVQVQGKSKREKKDRVFTDKTSATVICRKNASISVRAQDRYYSSSWSEWASVPCS
IL-1 level in culture supernatant [5]: 235 ng/mL | IL-6 level in culture supernatant [5]: 359 pg/mL | TNFα level in culture supernatant [5]: 149 ng/mL
